Patent US20230285606A1, “METHODS AND AGENTS FOR THE DETECTION AND TREATMENT OF CANCER” (CASE WESTERN RESERVE UNIVERSITY, priority 2020, published 2023)
No end group written: not given here.

Columns and labels:
[1] = test system: heterotopic xenograft flank U87 tumor implants; test: In vivo fluorescence imaging of heterotopic xenograft U87 flank tumors; settings: mice with U87 flank tumors; fluorophore-conjugated peptide injected via tail vein; FIG. 1/FIG. 2
Method: (§1) The human U87-MG and LN-229 glioma cell line was purchased from American Type Culture Collection (Manassas, Va., USA) and cultured. NIH athymic nude mice (5-8 weeks and 20-25 g on arrival; NCI-NIH) were maintained at the Athymic Animal Core Facility at Case Western Reserve University according to institutional policies. All animal protocols were approved by the Institutional Animal Care and Use Committee (IACUC). The cells were diluted in a 1:1 mixture of PBS and BD MATRIGEL Matrix (BD Biosciences, Franklin Lakes, N.J., USA), and injected into the right flank of nude athymic mice (NCr-nu/+, NCr-nu/nu, 20-25 g each). The Matrigel-cell mixture was loaded into a 1-ml syringe fitted with a 26-gauge needle and kept on ice. The mixture was injected subcutaneously in the right flank region of the mouse. Flank tumors were grown for 2 to 3 weeks. Each flank was implanted with 1.4-2×10^6 cells. To correlate tumor position with GFP fluorescence, mice were imaged using the Perkin-Elmer MAESTRO FLEX In vivo Imaging System. For in vivo analyses, the mice were anesthetized with inhaled isoflurane/oxygen and imaged. For ex vivo analyses, mice were sacrificed by decapitation. […]
(§2) Nude mice with heterotopic (flank) tumors were typically imaged 3 to 6 weeks following tumor initiation. […] Average radiant intensity units, calculated by the LivingImage software, were obtained for each ROI. […]

[2] = test system: heterotopic xenograft flank U87 tumor implants overexpressing PTPmu; test: In vivo fluorescence imaging of heterotopic xenograft U87 flank tumors overexpressing PTPmu; settings: mice with U87 flank tumors overexpressing PTPmu; FIG. 2
Method: as §1, §2

Row | Substance | in vivo average radiant efficiency [1] | in vivo average radiant efficiency [2]
1 | Peptide 2: SBK linked to a fluorophore with a polyglycine peptide spacer (GEGDDFNWEQVNTLTKPTSD; also: fluorophore linked via polyglycine spacer, not defined) | increased average radiant efficiency compared to the first agent, without a spacer, and the control agent | –
2 | Peptide 3: SBK linked to a fluorophore with a glycine/serine spacer (GEGDDFNWEQVNTLTKPTSD; also: fluorophore linked via glycine/serine spacer, not defined) | increased average radiant efficiency compared to the second agent | increased average radiant efficiency compared to the second agent
